Assays:
Assay type in all cases: cell-based
BTK = BTK (Homo sapiens (Human), UniProt Q06187); experiment: Ramos RA1 cell lysis and immunoassay, total BTK degradation; design: key to % BTK degradation (RAMOS, 24 h): Y: BTK bound in cells and BTK degradation occurred; concentration or dose not given beside the values; key to % BTK degradation (RAMOS, 10 uM, 24 h): Y: EGFR bound in cells and EGFR degradation occurred; details: RAMOS cells
Method: Ramos RA 1 cells (ATCC) were cultured in RPMI-1640 media (Wisent) supplemented with 10% heat-inactivated FBS and 1% penicillin/streptomycin. Cells were seeded in 6-well plates at 1.71×10^6 cells/well and incubated at 37° C., 5% CO2 for 16 hours. Cells were treated with compound at the indicated concentrations or DMSO alone and incubated at 37° C., 5% CO2 for 24 hours. Cell suspensions were centrifugated at 1,400-1,600 RPM for 5 minutes at room temperature and supernatants were discarded. Cell pellets were resuspended with 1× RIPA buffer (Millipore) and incubated on ice for 15 minutes. Protein lysates were extracted by centrifugating at 20,000 RPM for 20 minutes at 4° C. Proteins were separated and total BTK protein levels were quantified by Simple Western Immunoassay (ProteinSimple) using the 12-230 kDa Jess Separation Module according to the manufacturer's protocol, using a protein concentration of 0.25 μg/μl and antibodies targeting BTK (clone #D3H5, Cell Signalling) and β-Actin (clone #AC-15, Santa Cruz) diluted to 1:400 and 1:10, respectively, where the latter was used as a loading control. An equal ratio of rabbit and mouse HRP-conjugated secondary antibodies was used for detection. BTK protein levels were quantified relative to S-Actin loading levels and subsequently normalized to the DMSO control. Phosphorylated BTK levels were quantified using the Protein Normalization Assay Module for Jess (ProteinSimple) according to the manufacturer's protocol, using a protein concentration of 1.5 μg/μl and an antibody targeting pBTK (Y223) (Cell Signalling) diluted to 1:50. Phosphorylated BTK levels were quantified relative to the Protein Normalization Reagent and subsequently normalized to the DMSO control.

EGFR [1] = biological target: T1, EGFR (Homo sapiens (Human), UniProt P00533); experiment: A549 cell lysis and immunoassay, total EGFR degradation; design: key: Y: EGFR bound in cells and EGFR degradation occurred; details: A549 cells
Method: (§1) A549 cells (ATCC) were cultured in Dulbecco's Modified Eagle's Medium (DMEM) (Wisent) supplemented with 10% FBS and 1% penicillin/streptomycin. Cells were seeded in 6-well plates at 530,000 cells/well and incubated at 37° C., 5% CO2 for 16 hours. Cells were starved in DMEM containing 1% FBS for 4 hours before they were treated with the indicated concentrations of compound or DMSO alone and incubated at 37° C., 5% CO2 for 24 hours. Prior to cell harvest and lysis, 50 ng/ml human epidermal growth factor (hEGF) (Sigma) was added to the cells and incubated at 37° C., 5% CO2 for 10 minutes. Conditioned media was discarded, and adherent cells were washed with PBS before they were scraped on ice. Cell suspensions were centrifugated at 2,000 RPM for 5 minutes at 4° C. and supernatants were discarded. Cell pellets were resuspended with 1× RIPA buffer (Millipore) and incubated on ice for 15 minutes. Protein lysates were extracted by centrifugating at 20,000 RPM for 20 minutes at 4° C. Proteins were separated and total EGFR protein levels were quantified by Simple Western Immunoassay (ProteinSimple) using the Protein Normalization Assay Module for Jess according to the manufacturer's protocol, using a protein concentration of 0.125 μg/μl and an antibody targeting EGFR (clone #EP38Y, Abcam) diluted to 1:400. Phosphorylated EGFR protein levels were quantified with the same assay using a protein concentration of 1 μg/μl and an antibody targeting pEGFR (Y1068) (Cell Signalling) diluted to 1:25. EGFR and phosphorylated EGFR levels were normalized to the Jess Protein Normalization Reagent loading control and subsequently to the DMSO control.

EGFR [2] = biological target: T1, EGFR; experiment: A549 cell lysis and immunoassay, phospho-EGFR (Y1068) inhibition; design: key: X: EGFR bound and autophosphoration of EGFR inhibited in cells; details: A549 cells
Method: as §1

[3] = compound concentration 10, 24 h

T1 sequence (P00533 25-1210): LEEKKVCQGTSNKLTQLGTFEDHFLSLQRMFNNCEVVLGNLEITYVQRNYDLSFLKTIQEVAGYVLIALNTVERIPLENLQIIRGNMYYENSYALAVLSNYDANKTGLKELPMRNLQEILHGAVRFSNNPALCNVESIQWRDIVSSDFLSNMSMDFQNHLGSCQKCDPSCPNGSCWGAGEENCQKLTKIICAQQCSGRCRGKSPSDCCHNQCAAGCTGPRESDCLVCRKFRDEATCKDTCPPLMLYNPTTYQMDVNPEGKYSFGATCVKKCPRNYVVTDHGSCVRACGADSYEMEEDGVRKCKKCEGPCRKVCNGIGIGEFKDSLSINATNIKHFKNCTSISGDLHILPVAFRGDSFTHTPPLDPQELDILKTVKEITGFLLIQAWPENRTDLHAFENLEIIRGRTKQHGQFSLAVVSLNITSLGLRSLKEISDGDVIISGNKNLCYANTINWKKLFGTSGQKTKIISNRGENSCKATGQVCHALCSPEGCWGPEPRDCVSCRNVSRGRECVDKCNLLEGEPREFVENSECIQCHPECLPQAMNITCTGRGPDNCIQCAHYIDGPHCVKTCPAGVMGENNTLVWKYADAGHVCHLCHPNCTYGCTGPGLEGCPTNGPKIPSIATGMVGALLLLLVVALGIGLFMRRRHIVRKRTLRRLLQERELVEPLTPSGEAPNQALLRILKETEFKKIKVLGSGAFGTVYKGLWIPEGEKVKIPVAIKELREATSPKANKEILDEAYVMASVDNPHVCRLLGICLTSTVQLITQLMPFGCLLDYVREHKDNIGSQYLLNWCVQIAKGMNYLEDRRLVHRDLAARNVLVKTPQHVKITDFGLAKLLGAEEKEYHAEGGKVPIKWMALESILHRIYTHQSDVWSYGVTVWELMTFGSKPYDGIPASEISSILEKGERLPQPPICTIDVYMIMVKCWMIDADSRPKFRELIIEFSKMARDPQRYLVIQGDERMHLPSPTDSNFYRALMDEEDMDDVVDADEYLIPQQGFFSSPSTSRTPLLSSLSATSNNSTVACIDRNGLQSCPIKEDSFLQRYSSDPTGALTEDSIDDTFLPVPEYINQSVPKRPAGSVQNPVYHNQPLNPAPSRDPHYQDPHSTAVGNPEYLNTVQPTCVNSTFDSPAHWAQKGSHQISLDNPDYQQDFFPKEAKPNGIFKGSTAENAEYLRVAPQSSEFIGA
Sequence of BTK (Q06187 whole entry): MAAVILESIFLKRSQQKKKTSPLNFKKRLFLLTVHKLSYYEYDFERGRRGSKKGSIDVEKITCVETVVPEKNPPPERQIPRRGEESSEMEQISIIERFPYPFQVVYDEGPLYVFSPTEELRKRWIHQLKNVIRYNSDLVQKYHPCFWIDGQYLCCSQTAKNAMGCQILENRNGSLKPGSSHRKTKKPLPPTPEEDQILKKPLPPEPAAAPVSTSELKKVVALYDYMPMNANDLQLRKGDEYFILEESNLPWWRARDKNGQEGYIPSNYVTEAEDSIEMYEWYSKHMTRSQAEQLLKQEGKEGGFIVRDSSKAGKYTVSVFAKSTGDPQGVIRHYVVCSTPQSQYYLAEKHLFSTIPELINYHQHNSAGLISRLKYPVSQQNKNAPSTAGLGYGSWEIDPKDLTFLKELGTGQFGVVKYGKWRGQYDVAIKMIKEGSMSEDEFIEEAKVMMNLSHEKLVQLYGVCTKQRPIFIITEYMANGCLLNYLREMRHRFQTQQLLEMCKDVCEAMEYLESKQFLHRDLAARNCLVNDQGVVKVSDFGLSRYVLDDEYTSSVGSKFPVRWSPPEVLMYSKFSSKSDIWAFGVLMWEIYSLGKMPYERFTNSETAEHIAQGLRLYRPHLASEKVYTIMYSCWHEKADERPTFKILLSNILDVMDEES

| SMILES | % BTK degradation (RAMOS, 24 h) (BTK) | EGFR degradation (A549, 1 μM, 24 h) (EGFR [1]) | EGFR degradation (A549, compound concentration, 24 h) (EGFR [1]; [3]) | pEGFR inhibition (A549, 1 μM, 24 h) (EGFR [2]) | pEGFR inhibition (A549, compound concentration, 24 h) (EGFR [2]; compound concentration 10 μM) | % BTK degradation (RAMOS, 10 uM, 24 h) (BTK; 10 uM) | EGFR degradation (A549, compound concentration, 24 h) (EGFR [1]; compound concentration 5, 24 h) | pEGFR inhibition (A549, compound concentration, 24 h) (EGFR [2]; compound concentration 5 μM) |
| --- | --- | --- | --- | --- | --- | --- | --- | --- |
| C[S@+]([O-])c1c(F)c(F)c(F)c(F)c1C(=O)Nc1ncnc2[nH]ccc12 (racemic) [Compound I-46, 2,3,4,5-tetrafluoro-6-(methylsulfinyl)-N-(7H-pyrrolo[2,3-d]pyrimidin-4-yl)benzamide] | Y | Y | Y | X | X |  |  |  |
| COCCOc1ccc(Nc2ncc(F)c(Nc3cccc(NC(=O)c4c(F)c(F)c(F)c(F)c4[S@+](C)[O-])c3)n2)cc1 (stereo in doubt) [Compound I-62, 2,3,4,5-tetrafluoro-N-(3-((5-fluoro-2-((4-(2-methoxyethoxy)phenyl)amino)pyrimidin-4-yl)amino)phenyl)-6-(methylsulfinyl)benzamide] | Y | Y | Y | X |  |  |  |  |
| COCCOc1ccc(Nc2ncc(F)c(Nc3cccc(Nc4c(F)c(F)c(F)c(F)c4[S@+](C)[O-])c3)n2)cc1 (stereo in doubt) [Compound I-63, 5-fluoro-N^2-(4-(2-methoxyethoxy)phenyl)-N^4-(3-((2,3,4,5-tetrafluoro-6-(methylsulfinyl)phenyl)amino)phenyl)pyrimidine-2,4-diamine] | Y | Y | Y | X | X | Y |  |  |
| CS(=O)(=O)c1c(F)c(F)c(F)c(F)c1C(=O)Nc1cc2c(Nc3ccc(F)c(Cl)c3)ncnc2cc1O[C@H]1CCOC1 [Compound I-5, (S)—N-(4-((3-chloro-4-fluorophenyl)amino)-7-((tetrahydrofuran-3-yl)oxy)quinazolin-6-yl)-2,3,4,5-tetrafluoro-6-(methylsulfonyl)benzamide] | Y | Y | Y | X | X |  |  |  |
| C[S+]([O-])c1c(F)c(F)c(F)c(F)c1C(=O)N1CCC[C@@H](n2nc(-c3ccc(Oc4ccccc4)cc3)c3c(N)ncnc32)C1 (stereo partly drawn) [Compound I-36, ((R)-3-(4-amino-3-(4-phenoxyphenyl)-1H-pyrazolo[3,4-d]pyrimidin-1-yl)piperidin-1-yl)(2,3,4,5-tetrafluoro-6-(methylsulfinyl)phenyl)methanone] | Y | Y | Y | X | X |  |  |  |
| CS(=O)(=O)c1c(F)c(F)c(F)c(F)c1C(=O)NCCCn1nc(-c2ccc(Oc3ccccc3)cc2)c2c(N)ncnc21 [Compound I-39, N-(3-(4-amino-3-(4-phenoxyphenyl)-1H-pyrazolo[3,4-d]pyrimidin-1-yl)propyl)-2,3,4,5-tetrafluoro-6-(methylsulfonyl)benzamide] | Y | Y |  | X |  |  | Y | X |
| CN(C)S(=O)(=O)c1c(F)c(F)c(F)c(F)c1C(=O)NCCCn1nc(-c2ccc(Oc3ccccc3)cc2)c2c(N)ncnc21 [Compound I-41, N-(3-(4-amino-3-(4-phenoxyphenyl)-1H-pyrazolo[3,4-d]pyrimidin-1-yl)propyl)-2-(N,N-dimethylsulfamoyl)-3,4,5,6-tetrafluorobenzamide] | Y | Y |  | X |  |  | Y |  |
| Nc1ncnc2c1c(-c1ccc(Oc3ccccc3)cc1)nn2CCNC(=O)c1c(F)c(F)c(F)c(F)c1S(N)(=O)=O [Compound I-42, N-(2-(4-amino-3-(4-phenoxyphenyl)-1H-pyrazolo[3,4-d]pyrimidin-1-yl)ethyl)-2,3,4,5-tetrafluoro-6-sulfamoylbenzamide] | Y | Y | Y | X | X |  |  |  |
| CN(C)S(=O)(=O)c1c(F)c(F)c(F)c(F)c1C(=O)NCCNc1ncnc2[nH]ccc12 [Compound I-47, N-(2-((7H-pyrrolo[2,3-d]pyrimidin-4-yl)amino)ethyl)-2-(N,N-dimethylsulfamoyl)-3,4,5,6-tetrafluorobenzamide] | Y | Y | Y | X |  |  |  |  |
| NS(=O)(=O)c1c(F)c(F)c(F)c(F)c1C(=O)NCCNc1ncnc2[nH]ccc12 [Compound I-48] | Y | Y | Y | X | X |  |  |  |
| CS(=O)(=O)c1c(F)c(F)c(F)c(F)c1CNCCNc1ncnc2[nH]ccc12 [Compound I-50, N^1-(7H-pyrrolo[2,3-d]pyrimidin-4-yl)-N2-(2,3,4,5-tetrafluoro-6-(methylsulfonyl)benzyl) ethane-1,2-diamine] | Y | Y |  | X | X |  |  |  |
| COCCOc1ccc(Nc2ncc(F)c(Nc3cccc(NC(=O)c4c(F)c(F)c(F)c(F)c4S(=O)(=O)N(C)C)c3)n2)cc1 [Compound I-59, 2-(N,N-dimethylsulfamoyl)-3,4,5,6-tetrafluoro-N-(3-((5-fluoro-2-((4-(2-methoxyethoxy)phenyl)amino)pyrimidin-4-yl)amino)phenyl)benzamide] | Y | Y |  | X | X |  | Y |  |
| COCCOc1ccc(Nc2ncc(F)c(Nc3cccc(NC(=O)c4c(F)c(F)c(F)c(F)c4S(C)(=O)=O)c3)n2)cc1 [Compound I-61, 2,3,4,5-tetrafluoro-N-(3-((5-fluoro-2-((4-(2-methoxyethoxy)phenyl)amino)pyrimidin-4-yl)amino)phenyl)-6-(methylsulfonyl)benzamide] |  | Y | Y | X |  |  |  |  |
| COCCOc1ccc(Nc2ncc(F)c(Nc3cccc(Nc4c(F)c(F)c(F)c(F)c4S(C)(=O)=O)c3)n2)cc1 [Compound I-64, 5-fluoro-N^2-(4-(2-methoxyethoxy)phenyl)-N^4-(3-((2,3,4,5-tetrafluoro-6-(methylsulfonyl)phenyl)amino)phenyl)pyrimidine-2,4-diamine] | Y | Y | Y | X |  |  |  |  |

From US20240018153A1, “BENZENESULFONAMIDE DERIVATIVES AND USES THEREOF” (2692372 ONTARIO, INC., priority 2020, published 2024)
